Where two headings read alike, the source gives them in different places.
How the values were obtained:
[1] = target: recombinant human IDO (Homo sapiens, UniProt P14902); experiment: IDO inhibition kinetics (N-formylkynurenine formation, absorbance at 321 nm); assay type: biochemical; details: for manner of IDO inhibition: assay repeated using differing concentrations
Protocol: The following reaction (Sono, M., Cady, S. G. Biochemistry 28, 5392-5399 (1989)) was used to measure the kinetics of inhibition of IDO using compounds of this invention as well as other compounds for comparison, as listed in Table 4.
A solution of 0.1M potassium phosphate buffer (pH 6.5; optimal at 37° C.), 25 μM methylene blue, 200 μg/ml of catalase, 10 mM ascorbic acid, 50 nM of recombinant human IDO and 100 μM L-Tryptophan was prepared. The rate of product formation (Δε321=3.75 mM^−1 cm^−1 for N-formylkynurenine) was determined from the slope of the initial linear absorbance increase at 321 nm as a function of time.

[2] = target: IDO (Oryctolagus cuniculus, UniProt G1SJI2); details: tryptophan (substrate) analogues; Sono and Cady 1989, Cady and Sono 1991; cited from earlier work
Sequence of IDO (G1SJI2 1-402): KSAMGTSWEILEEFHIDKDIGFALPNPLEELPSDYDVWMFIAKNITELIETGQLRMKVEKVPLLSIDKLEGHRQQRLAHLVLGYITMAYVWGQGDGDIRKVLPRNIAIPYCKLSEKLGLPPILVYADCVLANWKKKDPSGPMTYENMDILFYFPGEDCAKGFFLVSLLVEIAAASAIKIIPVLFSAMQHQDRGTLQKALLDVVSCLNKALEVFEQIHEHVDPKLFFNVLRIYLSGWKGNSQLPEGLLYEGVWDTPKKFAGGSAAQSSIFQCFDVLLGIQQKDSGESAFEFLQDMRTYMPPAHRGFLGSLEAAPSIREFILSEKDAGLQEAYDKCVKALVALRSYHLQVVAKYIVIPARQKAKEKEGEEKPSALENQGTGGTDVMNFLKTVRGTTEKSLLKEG

[3] = target: purified, human IDO (Homo sapiens, UniProt P14902); experiment: In vitro IDO activity assay (kynurenine adduct detected at 480 nm) used for bioassay guided fractionation; assay type: biochemical; details: extracts and compounds identified by bioassay guided fractionation
Sequence of purified, human IDO (P14902 whole entry): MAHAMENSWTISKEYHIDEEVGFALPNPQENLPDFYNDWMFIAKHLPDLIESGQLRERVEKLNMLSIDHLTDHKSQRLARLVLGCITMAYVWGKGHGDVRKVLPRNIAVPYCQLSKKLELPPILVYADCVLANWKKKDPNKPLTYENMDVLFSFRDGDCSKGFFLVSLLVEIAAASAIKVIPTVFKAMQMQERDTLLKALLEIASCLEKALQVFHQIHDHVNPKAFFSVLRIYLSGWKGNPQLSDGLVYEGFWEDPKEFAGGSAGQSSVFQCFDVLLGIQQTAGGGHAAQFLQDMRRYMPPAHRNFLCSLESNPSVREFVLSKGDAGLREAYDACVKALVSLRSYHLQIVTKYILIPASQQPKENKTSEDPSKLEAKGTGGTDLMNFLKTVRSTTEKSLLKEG
Protocol: Various in vitro assays (see for example Takikawa, et al. J. Biol. Chem. 263, 2041-2048 (1988)) may be used to screen (e.g. high-throughput screening) or test reaction products or extracts obtained natural sources for IDO inhibition activity or to determine the kinetics of IDO inhibition. For example, IDO activity may be assayed by means of a reaction mixture (100 microlitre total volume) containing potassium phosphate buffer (50 mM, pH 6.5), ascorbic acid (20 mM), catalase (200 microgram/mL), methylene blue ([…]), L-tryptophan ([…]), and purified, human IDO. The reaction shown below may be allowed to proceed for 40 min (37° C.) and stopped by the addition of 20 microlitre of 30% (w/v) trichloroacetic acid. The N-formyl kynurenine formed from tryptophan in the reaction mixture during this time is then converted to kynurenine by incubating the reaction mixture at 65° C. for 15 minutes. After cooling the reaction mixture to room temperature, an equal volume of 2% (w/v) p-dimethylamino benzaldehyde in acetic acid may be added to convert the kynurenine present in the reaction mixture to a yellow adduct that can be detected at 480 nm. A standard curve for this latter reaction may be constructed with the use of standard solutions prepared from authentic L-kynurenine. Protein concentration may be determined by the Coomassie blue dye-binding method of Bradford with bovine serum albumin as a standard. (Takikawa et al, J. Biol. Chem. 263, 2041-2048).
Crude extracts from the marine hydroid Garveia annula collected in British Columbia and the sponge Xestospongia sp. collected in Papua New Guinea show activity in the aforementioned assay. […] Annulins A and B, garveatins A and C, and 2-hydroxygarvin A have been previously reported (Fahy et al J. Org. Chem., (1985), 50, 1149-50; J. Org. Chem., (1986), 51, 57-61; J. Org. Chem., (1986), 51, 5145-48; Can. J. Chem., (1987), 65, 376-83), but were not known to be IDO inhibitors. Annulin C, Garvalone C and garveatins E and F are novel. […] Xestoquinone, adociaquinone A, and adociaquinone B had been previously isolated from sponge extracts and their structures have been reported in the literature (Schmitz and Bloor J. Org. Chem. (1988), 53, 3922-3925), but were not known as IDO inhibitors.

[4] = 50 nM recombinant human IDO, 100 μM L-Tryptophan, pH 6.5, read-out: Ki

Sequence of recombinant human IDO (P14902 whole entry): as above

Row | Compound | Ki [1, 4] [µM] | IDO inhibition activity (qualitative) [3] | also measured
1 | COC1=CC(=O)c2ccccc2C1=O | 0.53 |  | 
2 | O=C1C=C(O)C(=O)c2ccccc21 | 100 |  | 
3 | NC(Cc1coc2ccccc12)C(=O)O (racemic) [beta-(3-benzofuranyl)-DL-alanine] |  |  | manner of IDO inhibition [2]: competitive inhibitors
4 | O=C1C=Cc2ccccc2C1=O [1,2 naphthoquinone, reference compound] | 3.4 |  | 
5 | Cn1cc(C[C@H](N)C(=O)O)c2ccccc21 [1-methyl-L-tryptophan (1MT), 1-methyl-L-tryptophan] |  |  | manner of IDO inhibition [2]: competitive inhibitors
6 | CCCc1c(C(=O)OC)c(OC)cc2cc3c(c(O)c12)C(=O)C(C)(O)C(=O)C3(C)C (centres unmarked) [2-Hydroxygarvin A] | 2.3 | active IDO inhibitors | 
7 | CC12CCCc3coc(c31)C(=O)c1cc3c(cc12)C(=O)C1=C(C3=O)S(=O)(=O)CCN1 (centres unmarked) [Adociaquinone A] | 0.086 | active IDO inhibitors | 
8 | CC12CCCc3coc(c31)C(=O)c1cc3c(cc12)C(=O)C1=C(NCCS1(=O)=O)C3=O (centres unmarked) [Adociaquinone B] | 0.025 | active IDO inhibitors | 
9 | O=C1c2ccccc2C(=O)c2c1ccc(O)c2O [Alizarin, reference compound] | 42 |  | 
10 | CCc1c(C)cc2c(c1O)C(=O)C1=C(C2=O)C(C)(C)OC1(O)C(=O)OC (centres unmarked) [Annulin A] | 0.694 | active IDO inhibitors | 
11 | CCc1c(C)cc2c(c1O)C(=O)C1=C(C2=O)C(C)(C)C(=O)C(C)(C(=O)OC)O1 (centres unmarked) [Annulin B] | 0.123 | active IDO inhibitors | 
12 | CCc1c(C)cc2c(c1O)C(=O)C1=C(C2=O)C(C)(C)OC1(OC)C(=O)OC (centres unmarked) [Annulin C] | 0.144 | active IDO inhibitors | manner of IDO inhibition [1]: non-competitive
13 | O=c1ccc2ccccc2o1 [Coumarin, reference compound] | 1110 |  | 
14 | O=C1C(Cl)=C(Cl)C(=O)c2ccccc21 [Dichlone, reference compound] |  |  | Ki [1]: 0.045 µM
15 | Oc1ccc(O)cc1 [Dihydroquinone, reference compound] | > 5000 |  | 
16 | COC(=O)c1c(C)cc2cc3c(c(O)c2c1OC)C(=O)C(C)(CC(C)=O)C(=O)C3(C)C (centres unmarked) [Garvalone C] | 1.25 |  | 
17 | CC(=O)c1c(C)cc2cc3c(c(O)c2c1O)C(=O)C(C)=C(O)C3(C)C [Garveatin A] | 3.2 | active IDO inhibitors | 
18 | COc1c(C(C)=O)c(C)cc2cc3c(c(O)c12)C(=O)C(C)(C)C(=O)C3(C)C [Garveatin C] | 1.18 | active IDO inhibitors | 
19 | CCC1=C(C)C(=O)c2cc3c(c(O)c2C1=O)C(=O)C(C)=C(O)C3(C)C [Garveatin E] | 3.1 | active IDO inhibitors | 
20 | CCc1c(C)cc2cc3c(c(O)c2c1O)C(=O)C(C)(O)C(=O)C3(C)C (centres unmarked) [Garveatin F] | 1.42 | active IDO inhibitors | 
21 | CC1Cc2c(c(O)cc3cc4c(c(O)c23)OC(C)(C)C4(C)C)C(=O)O1 (centres unmarked) [Garvin C] | ~2100 |  | 
22 | O=C1C=CC(=O)c2c(O)cccc21 [Juglone, reference compound] | 0.048 |  | 
23 | CC1=CC(=O)c2ccccc2C1=O [Menadione (Vitamin K3), Menadione, reference compound] | 0.58 | shown to be an IDO inhibitor | manner of IDO inhibition [1]: non-competitive
24 | CC1=C(C/C=C(\C)CCC[C@H](C)CCC[C@H](C)CCCC(C)C)C(=O)c2ccccc2C1=O [Vitamin K1, reference compound] | > 40 |  | 
25 | CC(=O)CC(c1ccccc1)c1c(O)c2ccccc2oc1=O (centres unmarked) [Warfarin, reference compound] | > 32 |  | 
26 | CC12CCCc3coc(c31)C(=O)c1cc3c(cc12)C(=O)C=CC3=O (centres unmarked) [Xestoquinone] | 0.181 | active IDO inhibitors | 
27 | Doxorubicin [reference compound] | 46000 |  | 

From patent US7799776B2, “Indoleamine 2,3-dioxygenase (IDO) inhibitors” (The University of British Columbia, priority 2004, dated 2010)
